Measurements reported in US5298494A, “Monosaccharides having anti-proliferation and anti-inflammatory activity, compositions and uses thereof” (Greenwich Pharmaceuticals Incorporated, priority 1993, dated 1994).
“Also recorded” adds a separate entry of the source. Like-named read-outs stand apart in the source and are kept apart here.

Legend:
[1] = system: T lymphocytes (normal mouse spleen cells) stimulated with ConA; assay: Mouse Spleen Cell ConA Blastogenesis Assay; assay type: cell-based, mouse (C57Bl/6)
[2] = system: BUD-8 human skin fibroblasts; assay: Fibroblast assay: proliferation of BUD-8 skin cell fibroblasts; assay type: cell-based
Experimental: The human skin cell fibroblast line, BUD-8 was obtained prior to each assay from the American Type Culture Collection. This is a fibroblast-like cell line which was originally derived from the normal skin of a person.
BUD-8 cell cultures were expanded for use in 25 cm^2 flasks at 37° C. in an atmosphere of 5% CO2 in air. At approximately 4-5 five day intervals, or when confluence was reached, the cells were passaged. This was accomplished by detaching the cells with a Teflon scraper, washing and reseeding the cells at a lower density into fresh tissue culture flasks.
(§1) The effect of the compound of the present invention on the proliferative capacity of human BUD-8 skin fibroblasts was measured with the use of a ^3 H-thymidine incorporation assay using culture conditions which were similar to those used for a Con-A blastogenesis assay, described previously. Cultured skin cells were detached from the surface of tissue culture flasks mechanically with a Teflon scraper. The cells were washed, resuspended in incubation medium and the viabilities were determined. These cells were then plated in triplicate at a density of 2×10^3 cells/0.1 ml/microtiter well for the proliferation assay and a density of 1×10^4 cells/0.1 ml/microtiter well for the assays to quantitate PGE2 and LTB4. To these cells was added incubation medium containing indomethacin to inhibit prostaglandin production, or nordihydroguaiaretic acid (NDGA) to inhibit leukotriene production (positive controls).
(§2) After 3 days of culture, 1 uCi ^3 H-thymidine was added in a 50 ul volume to each culture well of the microtiter plates. Eighteen hours later, each of the BUD-8 cultures was examined morphologically for evidence of compound-induced toxicity such as cell rounding or granularity. The thymidine-pulsed cells were then precipitated and the amount of ^3 H-thymidine incorporated was counted in a liquid scintillation counter.
The concentrations of the compounds of the invention which were used in these assays were:
The incubation medium used for culturing the BUD-8 cells was RPMI-1640 medium containing 10% fetal bovine serum, 100 ug/ml streptomycin, 100 U/ml penicillin, 0.2M Hepes buffer solution, 5×10^-5 M 2-mercaptoethanol and 2 mM glutamine.

[3] = system: PGE2 production by BUD-8 skin cell fibroblasts; assay: PGE2 production by BUD-8 skin cell fibroblasts (radioimmunoassay); assay type: cell-based, human
Experimental: as §1
After 18 hours of culture, samples of the BUD-8 skin cell supernatants were collected from one set of microtiter plates and frozen until assayed for PGE2 or for LTB4 content using the radioimmunoassays described below.
A radioinmunoassay (New England Nuclear) was used to quantitate PGE2 levels in BUD-8 skin cell culture supernatants. Briefly, into each polypropylene tube were mixed 0.1 ml anti-PGE2, 0.1 ml ^125 1-PGE2 and 0.1 ml PGE2 standard or PGE2 containing sample. The BUD-8 skin culture supernatants were diluted 1:2 prior to addition to the radioimmunoassay. Tubes were refrigerated overnight. A polyethylene glycol solution (16%, 6,000 m.w.) was then added to precipitate immune complexes and the radioactivity in the precipitate was counted in a gamma counter.

BUD-8 skin cells = assay: Morphological examination of BUD-8 cultures for compound-induced toxicity; assay type: cell-based, human
Experimental: as §2

[4] = ConA 1 ug/ml, compound 100 ug/ml
[5] = ConA 1 ug/ml, compound 300 ug/ml
[6] = ConA 1 ug/ml, compound 750 ug/ml
[7] = ConA 4 ug/ml, compound 300 ug/ml
[8] = ConA 4 ug/ml, compound 750 ug/ml

## CCCCCCCOCCCO[C@@H]1[C@H]2OC(C)(C)O[C@H]2O[C@@H]1[C@H](O)CO [IIg]
[1]; ConA 1 ug/ml, compound 1 ug/ml
  Blastogenic response of normal spleen cells to Con-A: 91,958 ± 15,723 cpm
[1]; ConA 1 ug/ml, compound 10 ug/ml
  Blastogenic response of normal spleen cells to Con-A: 100,734 ± 25,985 cpm
[1]; ConA 1 ug/ml, compound 25 ug/ml
  Blastogenic response of normal spleen cells to Con-A: 108,874 ± 15,534 cpm
[1]; [4]
  % change from control, ConA blastogenic response: -67%
  Blastogenic response of normal spleen cells to Con-A: 23,806 ± 1,727 cpm
[1]; [5]
  % change from control, ConA blastogenic response: -84%
  Blastogenic response of normal spleen cells to Con-A: 11,212 ± 15,288 cpm
[1]; [6]
  % change from control, ConA blastogenic response: -82%
  Blastogenic response of normal spleen cells to Con-A: 12,807 ± 9,049 cpm
[1]; ConA 4 ug/ml, compound 1 ug/ml
  Blastogenic response of normal spleen cells to Con-A: 174,764 × 10^3 cpm
[1]; ConA 4 ug/ml, compound 10 ug/ml
  Blastogenic response of normal spleen cells to Con-A: 168,131 ± 14,911 cpm
[1]; ConA 4 ug/ml, compound 25 ug/ml
  Blastogenic response of normal spleen cells to Con-A: 216,784 ± 27,862 cpm
[1]; ConA 4 ug/ml, compound 100 ug/ml
  Blastogenic response of normal spleen cells to Con-A: 31,073 ± 10,784 cpm
[1]; [7]
  % change from control, ConA blastogenic response: -91%
  Blastogenic response of normal spleen cells to Con-A: 8,268 ± 322 × 10^3 cpm
[1]; [8]
  % change from control, ConA blastogenic response: -79%
  Blastogenic response of normal spleen cells to Con-A: 20,265 ± 12,455 cpm
[1]; Mus musculus, T-lymphocyte, ConA 1 ug/ml, compound 1 ug/ml, read-out: % change from control, ConA blastogenic response
  inhibition at 1 µg/mL: -27%
[1]; Mus musculus, T-lymphocyte, ConA 1 ug/ml, compound 10 ug/ml, read-out: % change from control, ConA blastogenic response
  inhibition at 10 µg/mL: -39%
[1]; Mus musculus, T-lymphocyte, ConA 1 ug/ml, compound 25 ug/ml, read-out: % change from control, ConA blastogenic response
  inhibition at 25 µg/mL: -51%
[1]; Mus musculus, T-lymphocyte, ConA 1 ug/ml, compound 100 ug/ml, read-out: % change from control, ConA blastogenic response
  inhibition at 100 µg/mL: 67%
[1]; Mus musculus, T-lymphocyte, ConA 1 ug/ml, compound 300 ug/ml, read-out: % change from control, ConA blastogenic response
  inhibition at 300 µg/mL: 84%
[1]; Mus musculus, T-lymphocyte, ConA 1 ug/ml, compound 750 ug/ml, read-out: % change from control, ConA blastogenic response
  inhibition at 750 µg/mL: 82%
[1]; Mus musculus, T-lymphocyte, ConA 4 ug/ml, compound 1 ug/ml, read-out: % change from control, ConA blastogenic response
  inhibition at 1 µg/mL: -80%
[1]; Mus musculus, T-lymphocyte, ConA 4 ug/ml, compound 10 ug/ml, read-out: % change from control, ConA blastogenic response
  inhibition at 10 µg/mL: -73%
[1]; Mus musculus, T-lymphocyte, ConA 4 ug/ml, compound 25 ug/ml, read-out: % change from control, ConA blastogenic response
  inhibition at 25 µg/mL: -123%
[1]; Mus musculus, T-lymphocyte, ConA 4 ug/ml, compound 300 ug/ml, read-out: % change from control, ConA blastogenic response
  inhibition at 300 µg/mL: 91%
[1]; Mus musculus, T-lymphocyte, ConA 4 ug/ml, compound 750 ug/ml, read-out: % change from control, ConA blastogenic response
  inhibition at 750 µg/mL: 79%
[2]; 1 ug/ml
  ^3 H-Thymidine uptake by BUD-8 skin cells: 6,096 ± 1,352 cpm
[2]; 10 ug/ml
  ^3 H-Thymidine uptake by BUD-8 skin cells: 3,552 ± 994 cpm
[2]; 25 ug/ml
  ^3 H-Thymidine uptake by BUD-8 skin cells: 4,207 ± 450 cpm
[2]; 100 ug/ml
  ^3 H-Thymidine uptake by BUD-8 skin cells: 4,117 ± 481 cpm
[2]; 300 ug/ml
  ^3 H-Thymidine uptake by BUD-8 skin cells: 2,233 ± 244 cpm
[2]; 750 ug/ml
  ^3 H-Thymidine uptake by BUD-8 skin cells: 3,898 ± 1,692 cpm
[2]; Homo sapiens, Skin fibroblast, 1 ug/ml, read-out: % Effect on BUD-8 proliferation
  inhibition at 1 µg/mL: 1%
[2]; Homo sapiens, Skin fibroblast, 10 ug/ml, read-out: % Effect on BUD-8 proliferation
  inhibition at 10 µg/mL: 42%
[2]; Homo sapiens, Skin fibroblast, 25 ug/ml, read-out: % Effect on BUD-8 proliferation
  inhibition at 25 µg/mL: 32%
[2]; Homo sapiens, Skin fibroblast, 100 ug/ml, read-out: % Effect on BUD-8 proliferation
  inhibition at 100 µg/mL: 33%
[2]; Homo sapiens, Skin fibroblast, 300 ug/ml, read-out: % Effect on BUD-8 proliferation
  inhibition at 300 µg/mL: 64%
[2]; Homo sapiens, Skin fibroblast, 750 ug/ml, read-out: % Effect on BUD-8 proliferation
  inhibition at 750 µg/mL: 37%
[3]; 1 ug/ml
  PGE2 in supernatant: 5.2 ± 0.9 pg PGE2 /50 ul supernatant
  calculated PGE2 produced/10^5 BUD-8 cells: 157 pg per 10^5 cells
[3]; 10 ug/ml
  PGE2 in supernatant: 5.6 ± 0.4 pg PGE2 /50 ul supernatant
  calculated PGE2 produced/10^5 BUD-8 cells: 173 pg per 10^5 cells
[3]; 25 ug/ml
  PGE2 in supernatant: 4.1 ± 0.3 pg PGE2 /50 ul supernatant
  calculated PGE2 produced/10^5 BUD-8 cells: 111 pg per 10^5 cells
[3]; 100 ug/ml
  PGE2 in supernatant: 11.0 ± 1.4 pg PGE2 /50 ul supernatant
  calculated PGE2 produced/10^5 BUD-8 cells: 388 pg per 10^5 cells
[3]; 300 ug/ml
  PGE2 in supernatant: 19.6 ± 1.6 pg PGE2 /50 ul supernatant
  calculated PGE2 produced/10^5 BUD-8 cells: 731 pg per 10^5 cells
[3]; 750 ug/ml
  PGE2 in supernatant: 7.3 ± 0.2 pg PGE2 /50 ul supernatant
  calculated PGE2 produced/10^5 BUD-8 cells: 241 pg per 10^5 cells
[3]; Homo sapiens, Fibroblast, 18 h, 1 ug/ml, read-out: % Effect on PGE2 production
  inhibition at 1 µg/mL: 45%
[3]; Homo sapiens, Fibroblast, 18 h, 10 ug/ml, read-out: % Effect on PGE2 production
  inhibition at 10 µg/mL: 40%
[3]; Homo sapiens, Fibroblast, 18 h, 25 ug/ml, read-out: % Effect on PGE2 production
  inhibition at 25 µg/mL: 57%
[3]; Homo sapiens, Fibroblast, 18 h, 100 ug/ml, read-out: % Effect on PGE2 production
  inhibition at 100 µg/mL: -17%
[3]; Homo sapiens, Fibroblast, 18 h, 300 ug/ml, read-out: % Effect on PGE2 production
  inhibition at 300 µg/mL: -108%
[3]; Homo sapiens, Fibroblast, 18 h, 750 ug/ml, read-out: % Effect on PGE2 production
  inhibition at 750 µg/mL: 22%
BUD-8 skin cells
  cell toxicity in BUD-8 cultures, in words: Evidence of cell toxicity was observed at the two highest concentrations of compound tested; also recorded: Cell toxicity was again observed in cultures which included 300 and 750 ug/ml of the compound; also recorded: Compound induced cell toxicity was observed only at the highest dose level tested
